According to patent publication US6875761B2 (Eisai Co., Ltd., priority 1997, dated 2005):
Structures can show the parent of a compound that is named as a salt.

Row | SMILES | melting point
1 | CCN1CCN(c2nc(-c3ccc(C4COCCO4)cc3)cc3ccccc23)CC1 (centres unmarked) (as salt: hydrochloride) [Example 395, 1-(4-Ethylpiperazin-1-yl)-3-[4-(1,4-Dioxan-2-yl)Phenyl]Isoquinoline Dihydrochloride] | 163 to 166 °C (dec.)
2 | CCN1CCN(c2nc(-c3ccnc(OC)c3)cc3ccccc23)CC1 (as salt: hydrochloride) [Example 405, 1-(4-ethylpiperazin-1-yl)-3-(2-methoxypyridin-4-yl)isoquinoline] | 174 to 176 °C
3 | CCN1CCN(c2nc(C3CCc4ccc(OC)cc43)cc3ccccc23)CC1 (centres unmarked) (as salt: oxalate) [Example 114, 3-(6-Methoxyindan-1-yl)-1-(4-ethylpiperazin-1-yl)isoquinoline Oxalate] | 122 to 124 °C
4 | CCN1CCN(c2nc(-c3ccc(OCC(C)(C)O)cc3)cc3ccccc23)CC1 (as salt: hydrochloride) [Example 309, 1-(1-ethylpiperazin-4-yl)-3-[4-(2-hydroxy-2-methylpropoxy)phenyl]isoquinoline dihydrochloride] | 129 to 134 °C
5 | CCN1CCN(c2nc(-c3ccc(OCCO)cc3)cc3ccccc23)CC1 (as salt: hydrochloride) [Example 36, 1-(4-ethylpiperazin-1-yl)-3-[4-(2-hydroxyethoxy)phenyl]isoquinoline dihydrochloride] | 127 to 129 °C
6 | CCN1CCN(c2nc(-c3ccc(OCCOC)cc3)cc3ccccc23)CC1 (as salt: hydrochloride) [Example 42, 1-(4-ethylpiperazin-1-yl)-3-[4-(2-methoxyethoxy)phenyl]isoquinoline dihydrochloride] | 184.5 to 185 °C (dec.)
7 | CCCC(O)c1ccc(-c2cc3ccccc3c(N3CCN(CC)CC3)n2)cc1 (centres unmarked) (as salt: oxalate) [Example 21, 1-(4-ethylpiperazin-1-yl)-3-[4-(1-hydroxybutyl)phenyl]isoquinoline oxalate] | 198.5 to 199.5 °C
8 | CCN1CCN(c2nc(-c3ccc(N4CCOCC4)nc3)cc3ccccc23)CC1 (as salt: hydrochloride) [Example 147, 1-(4-ethylpiperazin-1-yl)-3-[2-(morpholin-4-yl)pyridin-5-yl]isoquinoline trihydrochloride] | 186 °C
9 | CCN1CCN(c2nc(-c3ccc(C#CC(C)(C)O)cc3)cc3sccc23)CC1 (as salt: oxalate) [Example 466, 4-(4-ethylpiperazin-1-yl)-6-[4-(3-hydroxy-3-methyl-1-butynyl)phenyl]thieno[3,2-c]pyridine oxalate] | 124.5 to 125.5 °C
10 | CCN1CCN(c2nc(-c3ccc([C@@H]4C[C@H](O)CCO4)cc3)cc3ccsc23)CC1 (relative stereo) (as salt: hydrochloride) [Example 454, 7-(4-Ethylpiperazin-1-yl)-5-[4-(cis-4-hydroxytetrahydropyran-2-yl)phenyl]thieno[2,3-c]pyridine dihydrochloride] | 157 to 159 °C
11 | CCN1CCN(c2nc(-c3ccc(OC(C)COC)nc3)cc3ccsc23)CC1 (centres unmarked) (as salt: hydrochloride) [Example 267, 5-[2-(2-methoxyethoxy-2-methyl)pyridin-5-yl]-7-(4-ethylpiperazin-1-yl)thieno[2,3-c]pyridine Hydrochloride] | 112 to 114 °C
12 | CCNC(=O)Oc1ccc(-c2cc3ccccc3c(N3CCN(CC)CC3)n2)cc1 (as salt: hydrochloride) [Example 59] | 146 to 150 °C
13 | COc1ccc(-c2cc3ccccc3c(NCCc3ccccn3)n2)cc1.Cl | 138 to 140 °C
14 | CCN1CCN(c2nc(-c3ccc(NC(C)=O)cc3)cc3ccccc23)CC1 (as salt: hydrochloride) [Example 68, 3-(4-Acetamidephenyl)-1-(4-Ethylpiperazin-1-Yl)Isoquinoline Hydrochloride] | 180 to 182 °C
15 | CN1CCN(c2nc(-c3ccc(OCC(C)(C)O)cc3)cc3sccc23)CC1 (as salt: hydrochloride) [Example 288, 6-[4-(2-methyl-2-hydroxypropoxy)phenyl]-4-(4-methylpiperazin-1-yl)thieno[3,2-c]pyridine hydrochloride] | 135 to 138 °C
16 | CCN1CCN(c2nc(-c3ccc(OCCCC(C)(C)O)cc3)cc3sccc23)CC1 (as salt: hydrochloride) [Example 292, 6-[4-(4-methyl-4-hydroxypentyloxy)phenyl]-4-(4-ethylpiperazin-1-yl)thieno[3,2-c]pyridine] | 116 to 118 °C
17 | CCN1CCN(c2nc(-c3ccc(CCCO)c(Cl)c3)cc3ccsc23)CC1 (as salt: oxalate) [Example 257, 5-[4-(3-hydroxypropyl)-3-chlorophenyl]-7-(4-ethylpiperazin-1-yl)thieno[2,3-c]pyridine Oxalate] | 114 to 116 °C

Now from value to molecule:

Row | melting point | SMILES
18 | 170 to 174 °C | CCN1CCN(c2nc(/C=C/c3ccc(S(C)(=O)=O)cc3)cc3ccccc23)CC1 (as salt: hydrochloride) [Example 201, 3-[(E)-2-(4-Methylsulfonylphenyl)Ethenyl]-1-(4-Ethylpiperazin-1-Yl)Isoquinoline Hydrochloride]
19 | 154 to 156 °C | CCNS(=O)(=O)Cc1ccc(-c2cc3ccccc3c(N3CCN(CC)CC3)n2)cc1 (as salt: hydrochloride) [Example 80, 3-(4-Ethylaminosulfonylmethylphenyl)-1-(4-Ethylpiperazin-1-Yl)Isoquinoline Hydrochloride]
20 | 176 to 178 °C | CCC(=O)Nc1ccc(-c2cc3ccccc3c(N3CCN(CC)CC3)n2)cc1 (as salt: hydrochloride) [Example 69, 3-(4-Ethylcarbonylaminophenyl)-1-(4-Ethylpiperazin-1-Yl)Isoquinoline Hydrochloride]
21 | 143 to 144 °C | CCN1CCN(c2nc(-c3ccc(OCCOC)c(OCCOC)c3)cc3ccccc23)CC1 (as salt: hydrochloride) [Example 43, 3-[3,4-Di(2-Methoxyethoxy)Phenyl]-1-(4-Ethylpiperazin-1-Yl)Isoquinoline Hydrochloride]
22 | 158 to 160 °C | CCN1CCN(c2nc(-c3ccccc3OCCO)cc3ccccc23)CC1 (as salt: hydrochloride) [Example 18, 3-[2-(2-hydroxyethoxy)phenyl]-1-(4-ethylpiperazin-1-yl)isoquinoline hydrochloride]
23 | 173 to 176 °C | CCN1CCN(c2nc(-c3ccc(OCCCN)cc3)cc3ccccc23)CC1 (as salt: hydrochloride)
24 | 205 to 206 °C | CCN1CCN(c2nc(-c3ccc(CCC(C)(C)O)cc3)cc3ccccc23)CC1 (as salt: hydrochloride) [Example 388, 1-(4-Ethylpiperazin-1-yl)-3-[4-(3-Hydroxy-3-Methylbutyl)Phenyl]Isoquinoline Dihydrochloride]
25 | 129 to 131 °C | COc1ccc(-c2cc3ccsc3c(N3CCN(CCO)CC3)n2)cc1 (as salt: hydrochloride) [Example 276, 5-(4-methoxyphenyl)-7-[4-(2-hydroxyethyl)piperazin-1-yl]thieno[2,3-c]pyridine hydrochloride]
26 | 132 to 133 °C | CCN1CCN(c2nc(-c3ccc(C(O)CO)cc3)cc3ccccc23)CC1 (centres unmarked) (as salt: hydrochloride) [Example 387, 1-(4-Ethylpiperazin-1-yl)-3-[4-(1,2-Dihydroxyethyl)Phenyl]Isoquinoline Dihydrochloride]
27 | 148 to 150 °C | CCN1CCN(c2nc(-c3ccc(C4CCOCC4)cc3)cc3ccccc23)CC1 (as salt: hydrochloride) [Example 83, 3-[4-(Tetrahydropyran-4-yl)phenyl]-1-(4-ethylpiperazin-1-yl)isoquinoline Hydrochloride]
28 | 158 to 160 °C | CCN1CCN(c2nc(-c3ccc(C4CCOCC4)nc3)cc3ccccc23)CC1 (as salt: oxalate) [Example 156, 3-[2-(tetrahydropyran-4-yl)pyridin-5-yl]-1-(4-ethylpiperazin-1-yl)isoquinoline oxalate]
29 | 156 to 159 °C | CCN1CCN(c2nc(-c3ccc(C4=CCOCC4)nc3)cc3ccccc23)CC1 (as salt: oxalate) [Example 155, 3-[2-(5,6-dihydro-2H-pyran-4-yl)pyridin-5-yl]-1-(4-ethylpiperazin-1-yl)isoquinoline oxalate]
30 | 105 to 107 °C | OCCOc1ccc(-c2cc3ccsc3c(N3CCN(CCO)CC3)n2)cc1 (as salt: oxalate) [Example 275, 5-[4-(2-hydroxyethoxy)phenyl]-7-[4-(2-hydroxyethyl)piperazin-1-yl]thieno[3,2-c]pyridine oxalate]
31 | 121 to 123 °C | CCN1CCN(c2nc(-c3cc(OC)cc(OC)c3)cc3ccccc23)CC1 (as salt: hydrochloride) [Example 15, 3-(3,5-dimethoxyphenyl)-1-(4-ethylpiperazin-1-yl)isoquinoline Dihydrochloride]
32 | 116 to 117.5 °C | CCN1CCN(c2nc(-c3ccc(CCC(C)(C)O)cc3)cc3sccc23)CC1 (as salt: hydrochloride) [Example 291, 4-[4-ethylpiperazin-1-yl)-6-[4-(3-hydroxy-3-methylbutyl)phenyl]thieno[3,2-c]pyridine dihydrochloride]
33 | 128 to 129 °C | CCN1CCN(c2nc(-c3ccc(C(O)C4CCCC4)cc3)cc3ccsc23)CC1 (centres unmarked) (as salt: hydrochloride) [Example 458, 7-(4-ethylpiperazin-1-yl)-5-[4-(cyclopentylhydroxymethyl)phenyl]thieno[2,3-c]pyridine dihydrochloride]
34 | 266 to 267 °C | CCN1CCN(c2nc(/C=C(\C)c3ccc(N4CCOCC4)cc3)cc3ccccc23)CC1 (as salt: oxalate) [Example 206, 3-{(E)-2-Methyl-2-[4-(4-Morpholinyl)Phenyl]Ethenyl}-1-(4-Ethylpiperazin-1-Yl)Isoquinoline Oxalate]
35 | 278 to 280 °C (dec.) | CCN1CCN(c2nc(-c3ccc(CNS(=O)(=O)CC)c(Cl)c3)cc3ccccc23)CC1 (as salt: hydrochloride) [Example 91, 3-(3-Chloro-4-ethylsulfonylaminomethylphenyl)-1-(4-ethylpiperazin-1-yl)isoquinoline Hydrochloride]
